# pEC50: −log10 of the molar value.
# Tests used:
# Assay in all cases: NMR-based dNTPase assay, activation by GTP
# Type in all cases: biochemical
# [1] = biological target: T1, SAMHD1_114–626 (HD domain construct of SAMHD1) (Homo sapiens, UniProt Q9Y3Z3, C522S)
# T1 construct: HD domain construct, residues 114-626, bacterial expression; nucleotide-dependent homotetramer; 10 cysteines
# From the text: NMR-based dNTPase assay, activation by GTP on SAMHD1_114–626 (HD domain construct of SAMHD1) | properties of the C522S mutant were indistinguishable from those of the WT protein
# [2] = biological target: T2, SAMHD1_114–626 (HD domain construct of SAMHD1) (Homo sapiens, UniProt Q9Y3Z3, C341S)
# T2 construct: HD domain construct, residues 114-626, bacterial expression; nucleotide-dependent homotetramer; 10 cysteines
# From the text: (§1) NMR-based dNTPase assay, activation by GTP on SAMHD1_114–626 (HD domain construct of SAMHD1) | EC50) values for GTP-mediated activation for C341S and C350S were also higher
# [3] = biological target: T3, SAMHD1_114–626 (HD domain construct of SAMHD1) (Homo sapiens, UniProt Q9Y3Z3, C350S)
# T3 construct: HD domain construct, residues 114-626, bacterial expression; nucleotide-dependent homotetramer; 10 cysteines
# From the text: as §1
# [4] = biological target: T4, SAMHD1_114–626 (HD domain construct of SAMHD1) (Homo sapiens, UniProt Q9Y3Z3)
# T4 construct: HD domain construct, residues 114-626, bacterial expression; nucleotide-dependent homotetramer; 10 cysteines
# Description: NMR-based dNTPase assay, activation by GTP on SAMHD1_114–626 (HD domain construct of SAMHD1) | kcat and EC50^GTP parameters were determined by non-linear fitting
# T4 sequence (Q9Y3Z3 114-626): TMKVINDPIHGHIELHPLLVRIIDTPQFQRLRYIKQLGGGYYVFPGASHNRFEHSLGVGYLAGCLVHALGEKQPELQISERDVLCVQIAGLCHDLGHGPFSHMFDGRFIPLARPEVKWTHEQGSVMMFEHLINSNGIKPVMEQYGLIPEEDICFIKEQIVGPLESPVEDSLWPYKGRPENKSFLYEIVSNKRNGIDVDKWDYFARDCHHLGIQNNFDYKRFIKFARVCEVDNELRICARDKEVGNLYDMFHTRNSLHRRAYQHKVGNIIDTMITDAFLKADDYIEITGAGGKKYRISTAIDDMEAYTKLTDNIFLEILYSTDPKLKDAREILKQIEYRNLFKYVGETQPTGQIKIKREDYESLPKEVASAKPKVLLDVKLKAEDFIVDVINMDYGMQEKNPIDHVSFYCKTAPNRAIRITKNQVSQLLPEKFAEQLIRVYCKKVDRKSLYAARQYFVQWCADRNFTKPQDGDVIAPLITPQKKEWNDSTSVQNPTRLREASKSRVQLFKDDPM
# T2 sequence (Q9Y3Z3 114-626 C341S): as the sequence (Q9Y3Z3 114-626) above, with C228S counted along it
# T3 sequence (Q9Y3Z3 114-626 C350S): as the sequence (Q9Y3Z3 114-626) above, with C237S counted along it
# T1 sequence (Q9Y3Z3 114-626 C522S): as the sequence (Q9Y3Z3 114-626) above, with C409S counted along it
smiles,measurement,setting,value
Nc1nc2c(ncn2[C@@H]2O[C@H](COP(=O)(O)OP(=O)(O)OP(=O)(O)O)[C@@H](O)[C@H]2O)c(=O)[nH]1 [GTP],pEC50,[1],5.32
same,pEC50,[2],4.35
same,pEC50,[3],5.09
same,pEC50,[4],5.41
